The values below come from article PMC12461739, “Multi-targeted azacoumarin–cyanocinnamate hybrids induce G2/M arrest and apoptosis via tubulin, and COX-2/VEGFR modulation: insights from in vitro mechanistic basis and in vivo validation” (RSC Medicinal Chemistry, 2025).

Where two headings read alike, the source gives them in different places.

The subject of one data set is MCF-7 cells. Description: MTT antiproliferative assay, MCF-7. It is filed as cell-based, human. As to conditions: for IC50: MTT, 48 h treatment, read-out: IC50, antiproliferative activity toward MCF-7; for fold reduction of cytotoxic activity after acetylation of the hydroxyl group: MCF-7, vs parent compound (7 or 6a). On the procedure: (§1) The cytotoxic effects of the synthesized compounds were evaluated using the MTT assay. MCF-7, MDA-MB 231 (human breast cancer), and MCF-10A (non-tumorigenic breast epithelial) cells were seeded (1–3 × 10^4 cells per well) and incubated for 24 hours at 37 °C in a humidified atmosphere containing 5% CO2.[74] Following incubation, cells were treated with serial dilutions of the test compounds prepared in DMSO. The final concentration of DMSO in all wells, including controls, was maintained below 0.5% v/v to avoid solvent-related cytotoxicity. Doxorubicin was used as a positive control for comparison of antiproliferative activity. Following 48 hours of treatment, the culture medium was gently removed, and each well received 20 μL of MTT reagent (5 mg mL^−1 in phosphate-buffered saline). The plates were incubated at 37 °C for 4 hours to facilitate the enzymatic reduction of MTT into formazan by metabolically active cells. After incubation, the solution was discarded, and 100 μL of dimethyl sulfoxide was added. The absorbance of each well was measured at 570 nm using a microplate spectrophotometer. Cell viability was determined by comparing absorbance values to those of the untreated controls and expressed as a percentage. GraphPad Prism software was used to plot dose–response curves and calculate IC50 values.
(Tetrazolium dyes change colour on reduction, which living cells bring about.)

The test system of the next data set is MDA-MB 231 cells. Put plainly: MTT antiproliferative assay, MDA-MB 231. Particulars: for IC50: Homo sapiens, MDA-MB-231, 48 h, MTT, 48 h treatment, read-out: IC50, antiproliferative activity toward MDA-MB 231. In kind it is cell-based, human. On the procedure: as §1
Data set [1] can be described thus: MTT cytotoxicity assay, MCF-10A. In kind it is cell-based, human. As to conditions: human, MCF-10A non-tumorigenic breast epithelial cells, MTT, 48 h treatment, non-tumorigenic breast epithelial cells; read-out: IC50, cytotoxicity toward MCF-10A. The method, then:
as §1, with “MCF-7, MDA-MB 231 (human breast cancer), and MCF-10A (non-tumorigenic breast epithelial) cells were seeded (1–3 × 10^4 cells per well) and incubated for 24 hours at 37 °C in a humidified atmosphere containing 5% CO2.[74]” left out

The next data set relates to MCF-10A cells. Description: MTT cytotoxicity assay, MCF-10A. In kind it is cell-based, human. The method, then: as §1, with “MCF-7, MDA-MB 231 (human breast cancer), and MCF-10A (non-tumorigenic breast epithelial) cells were seeded (1–3 × 10^4 cells per well) and incubated for 24 hours at 37 °C in a humidified atmosphere containing 5% CO2.[74]” left out
A short description of data set [2]: FRAP (ferric reducing antioxidant power) assay. Particulars: 37 °C, 60 min. On the procedure:
The resulting Fe^2+ forms a colored complex with the FRAP chromogenic probe, which can be quantitatively measured. The reaction mixture was prepared by combining FRAP assay buffer, FRAP probe, and FeCl3 solution as per the manufacturer's protocol. […] Absorbance was measured at 594 nm using a microplate reader after incubation at 37 °C for 60 minutes. Antioxidant activity was determined by comparing the absorbance of the samples to a standard curve generated using known concentrations of the ferrous standard provided in the kit.

For the compound `CCOC(=O)/C(C#N)=C/c1ccc(Oc2c(C)c3cc(Br)c(O)c(Br)c3[nH]c2=O)c(OC)c1` [Compound 6a, ethyl (E)-2-cyano-3-(4-((6,8-dibromo-7-hydroxy-4-methyl-2-oxo-1,2-dihydroquinolin-3-yl)oxy)-3-methoxyphenyl)acrylate], the IC50 in the data set with MCF-7 cells (Homo sapiens, MCF7, 48 h) was found to be 26.6 ± 1.56 µM; in the data set on MCF-7 cells it was 26.6 ± 1.56 µM; with MDA-MB 231 cells, 19.6 ± 1.72 µM.
`COc1cccc2c1C(=O)c1c(O)c3c(c(O)c1C2=O)C[C@@](O)(C(=O)CO)C[C@@H]3O[C@H]1C[C@H](N)[C@H](O)[C@H](C)O1` [doxorubicin, reference compound]: the IC50 in the data set on MCF-7 cells (Homo sapiens, MCF7, 48 h) was determined as 12.6 ± 0.61 µM; in the data set with MDA-MB 231 cells, 8.4 ± 0.61 µM; in the data set on MCF-10A cells (MTT, 48 h treatment, non-tumorigenic breast epithelial cells, read-out: IC50, cytotoxicity toward MCF-10A) it was 16.2 ± 0.55 µM. Moreover, the IC50 at 48 h in data set [1] came out at 16.2 ± 0.55 µM. Also, the “selectivity index toward breast cancer cells” value in the data set on MCF-10A cells (MCF-10A vs MCF-7 / MDA-MB 231) was found to be 1.3.
On to `CCOC(=O)/C(C#N)=C/c1cc(Br)c(Oc2c(C)c3cc(Br)c(O)c(Br)c3[nH]c2=O)c(Br)c1` [Compound 6b, ethyl (E)-2-cyano-3-(3,5-dibromo-4-((6,8-dibromo-7-hydroxy-4-methyl-2-oxo-1,2-dihydroquinolin-3-yl)oxy)phenyl)acrylate], for which the IC50 in the data set with MCF-7 cells (Homo sapiens, MCF7, 48 h) was found to be 112 ± 6.57 µM; in the data set on MCF-7 cells, 112 ± 6.57 µM; in the data set on MDA-MB 231 cells, 31.1 ± 1.87 µM. Also, the “fold improvement in cytotoxicity in MDA-MB-231 compared to MCF-7” value in the data set on MDA-MB 231 cells (MDA-MB-231 vs MCF-7) is reported as approximately 3.6 fold.
In data set [2], `O=C1O[C@H]([C@@H](O)CO)C(O)=C1O` [ascorbic acid, reference compound] gave an IC50 of 110 ± 4.21 µM.
`CCOC(=O)/C(C#N)=C/c1ccc(Oc2c(C)c3cc(Br)c(OC(C)=O)c(Br)c3[nH]c2=O)c(OC)c1` [Compound 9, ethyl (E)-3-(4-((7-acetoxy-6,8-dibromo-4-methyl-2-oxo-1,2-dihydroquinolin-3-yl)oxy)-3-methoxyphenyl)-2-cyanoacrylate]: the IC50 with MCF-7 cells (Homo sapiens, MCF7, 48 h) stood at 33.4 ± 1.96 µM; with MCF-7 cells it was 33.4 ± 1.96 µM; with MDA-MB 231 cells, 44.2 ± 2.96 µM. In addition, the “fold reduction of cytotoxic activity after acetylation of the hydroxyl group” value with MCF-7 cells is given as 1.25 fold.
As for `CCOC(=O)/C(C#N)=C/c1ccc(Oc2c(C)c3cc(Br)c(OC(C)=O)c(Br)c3[nH]c2=O)cc1` [Compound 8, ethyl (E)-3-(4-((7-acetoxy-6,8-dibromo-4-methyl-2-oxo-1,2-dihydroquinolin-3-yl)oxy)phenyl)-2-cyanoacrylate], the 50% inhibitory concentration (IC50) with MCF-7 cells (Homo sapiens, MCF7, 48 h) was 17.8 ± 1.05 µM; in the data set with MCF-7 cells, 17.8 ± 1.05 µM; in the data set on MDA-MB 231 cells, 26.9 ± 0.79 µM. Moreover, the “fold reduction of cytotoxic activity after acetylation of the hydroxyl group” value in the data set with MCF-7 cells worked out at 2.3 fold.

By IC50 is commonly meant the concentration at which inhibition is half-maximal.
